From PubChem BioAssay (NCI)
Where “and” joins values, the source holds several entries; their conditions need not be identical. Identical values can stand only once.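 Method: 48-hour compound exposure of cells in 96-well plates, five concentrations, linear interpolation of endpoints. GI50 = concentration required for 50% inhibition of growth. TGI marks complete inhibition of growth.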

What was measured:
Assay in all cases: inhibition of tumour cell growth, NCI panel, 48 h
786-0 renal = system: 786-0 renal
BT-549 breast = system: BT-549 breast
EKVX NSCLC = system: EKVX NSCLC
HOP-92 NSCLC = system: HOP-92 NSCLC
HS 578T breast = system: HS 578T breast
K-562 leukemia = system: K-562 leukemia
SF-268 CNS = system: SF-268 CNS
SK-MEL-2 melanoma = system: SK-MEL-2 melanoma
SW-620 colon = system: SW-620 colon
MCF7 breast = system: MCF7 breast

SMILES | GI50 (786-0 renal) [µM] | TGI (786-0 renal) | GI50 (BT-549 breast) [µM] | TGI (BT-549 breast) | GI50 (EKVX NSCLC) [µM] | TGI (EKVX NSCLC) | GI50 (HOP-92 NSCLC) | TGI (HOP-92 NSCLC) | GI50 (HS 578T breast) | TGI (HS 578T breast) | GI50 (K-562 leukemia) [µM] | TGI (K-562 leukemia) | GI50 (SF-268 CNS) [µM] | TGI (SF-268 CNS) [µM] | GI50 (SK-MEL-2 melanoma) | TGI (SK-MEL-2 melanoma) | GI50 (SW-620 colon) [µM] | TGI (SW-620 colon) | GI50 (MCF7 breast) | TGI (MCF7 breast)
O=C1C(Cl)=C(Nc2ccc3c(c2NC2=C(Cl)C(=O)c4ccccc4C2=O)C(=O)c2ccccc2C3=O)C(=O)c2ccccc21 | 2.91 | 9.6 µM | 1.36 | 2.83 µM | 1.83 | 4.18 µM | 2.03 µM | 4.95 µM | 2.1 µM | 6.88 µM | 2.75 | 7.81 µM | 2.91 | 12.9 | 1.82 µM | 6.33 µM | 2.93 | 10.6 µM | – | –
COc1ccc(-c2cc3nccn3c(Nc3ncccc3C(N)=O)n2)cc1OC | 2.42 | > 100 µM | 0.886 | > 100 µM | – | – | – | – | > 31.8 µM | > 100 µM | 4.59 | > 100 µM | 3.65 | > 100 | 0.824 µM | > 100 µM | 2.34 | > 100 µM | 1.87 µM | > 100 µM
C=C(C)C(=O)N1c2ccc(OC)cc2CC1C(=O)OCC (stereo not drawn) | – | > 100 µM | – | > 100 µM | – | > 100 µM | – | – | – | > 100 µM | – | > 100 µM | – | > 100 | – | > 100 µM | – | > 100 µM | – | > 100 µM
Cc1ccc2oc(=O)cc(C3c4ccc([nH]4)C(c4cc(=O)oc5ccc(C)cc45)c4ccc([nH]4)C(c4cc(=O)oc5ccc(C)cc45)c4ccc([nH]4)C(c4cc(=O)oc5ccc(C)cc45)c4ccc3[nH]4)c2c1 (stereo not drawn) | 0.0288 | 0.0937 µM | 0.0299 | 0.183 µM | 0.0632 | 4.48 µM | 0.106 µM | 1.07 µM | 0.0351 µM | 2.02 µM | – | – | 0.0561 | 1.47 | 0.0983 µM | 1.02 µM | 0.0352 | 3.34 µM | 0.0394 µM | 1.95 µM
Cc1cc(S(=O)(=O)Nc2nc3ccsc3c(=O)n2Cc2ccccc2)c(S)cc1Cl | 32.2 | > 100 µM | 28 | 89.8 µM | 21.8 | 77.3 µM | 87.6 µM | > 100 µM | 42.3 µM | > 100 µM | 67.9 | > 100 µM | 30.6 | > 100 | – | – | 34.1 | > 100 µM | 34.4 µM | > 100 µM
CCCCCC/C=C\CCCCCCCCCc1c(O)c(OC)cc(O)c1CN(C)C | – | 3.26 µM | – | 21 µM | – | 23.6 µM | – | – | – | 10.9 µM | – | 4.49 µM | – | – | – | 40.1 µM | – | > 100 µM | – | 7 µM
CCOC(CN(C)C(=O)OCC(Cl)(Cl)Cl)OCC | – | > 100 µM | – | > 100 µM | – | > 100 µM | – | > 100 µM | – | > 100 µM | – | > 100 µM | – | > 100 | – | – | – | > 100 µM | – | > 100 µM
CO[C@@]12[C@H](COC(N)=O)C3=C(C(=O)C(C)=C(N)C3=O)N1C[C@@H]1N[C@@H]12 | 0.717 | 4.99 µM and 10.2 µM and 4.74 µM | 0.799 | 9.38 µM and 6.85 µM and 6.4 µM | 7.98 | 17.1 µM and 20.8 µM and 31.7 µM | 1.81 µM and 1.75 µM | 12.4 µM and 5.53 µM and 7.2 µM | 4.21 µM and 5.26 µM | 15.3 µM and 14 µM and 52.1 µM | 1.52 | 19.6 µM and 15.6 µM and > 100 µM | – | – | 4.21 µM and 2.54 µM | 4.96 µM and 7.5 µM and 6.61 µM | 0.665 | 13 µM and 9.44 µM and 24.2 µM | 0.215 µM and 0.0824 µM | 8.6 µM and 15.1 µM and 47 µM
COc1ccc(Cn2cc3c(c2-c2ccccc2)CCc2cncnc2-3)cc1 | 10.1 | 38.5 µM | 4.1 | 14.7 µM | 4.5 | 29.3 µM | 10.8 µM | 28.5 µM | 1.58 µM | 6.51 µM | 2.75 | 11.3 µM | 9.63 | 22.2 | – | – | 3.65 | 13.9 µM | 4.66 µM | 18.9 µM
Clc1ccc2c(NCCN3CCN(c4ccnc(N5CCCC5)n4)CC3)ccnc2c1 | 3.32 | 11.1 µM | 5.63 | 19.4 µM | 10.2 | 24.4 µM | – | – | 3.54 µM | 19.8 µM | 1.47 | 9.76 µM | 2.73 | 11.5 | 2.61 µM | 6.77 µM | 2.05 | 4.31 µM | 1.96 µM | 8.04 µM
Cc1[nH]ccc2cc3nc4ccccc4c3cc12 | 3.33 | 13.8 µM | 2.74 | 13.3 µM | – | – | 1.3 µM | 5.64 µM | 3.26 µM | 18 µM | 2.8 | 10.4 µM | 2.97 | 14.2 | 5.17 µM | 16.5 µM | 1.07 | 6.9 µM | 1.34 µM | 5.63 µM
